Measured values reported in PubChem BioAssay (NCI).
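Method: 48-hour compound exposure of cells in 96-well plates, five concentrations, linear interpolation of endpoints. At the TGI there is no net growth.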

Tests used:
Test in all cases: growth of human tumour cells (NCI), 48 h
HCT-116 colon = system: HCT-116 colon
SN12C renal = system: SN12C renal
SR leukemia = system: SR leukemia
OVCAR-5 ovarian = system: OVCAR-5 ovarian
RPMI-8226 leukemia = system: RPMI-8226 leukemia
SNB-75 CNS = system: SNB-75 CNS
SK-OV-3 ovarian = system: SK-OV-3 ovarian
UO-31 renal = system: UO-31 renal
MDA-MB-435 = system: MDA-MB-435
SF-268 CNS = system: SF-268 CNS
M14 melanoma = system: M14 melanoma
HCC-2998 colon = system: HCC-2998 colon
SF-539 CNS = system: SF-539 CNS
MOLT-4 leukemia = system: MOLT-4 leukemia
COLO 205 colon = system: COLO 205 colon
HCT-15 colon = system: HCT-15 colon
SW-620 colon = system: SW-620 colon
T-47D breast = system: T-47D breast
KM12 colon = system: KM12 colon
786-0 renal = system: 786-0 renal

SMILES	TGI (HCT-116 colon)	TGI (SN12C renal)	TGI (SR leukemia)	TGI (OVCAR-5 ovarian)	TGI (RPMI-8226 leukemia)	TGI (SNB-75 CNS)	TGI (SK-OV-3 ovarian)	TGI (UO-31 renal)	TGI (MDA-MB-435)	TGI (SF-268 CNS)	TGI (M14 melanoma)	TGI (HCC-2998 colon)	TGI (SF-539 CNS)	TGI (MOLT-4 leukemia)	TGI (COLO 205 colon)	TGI (HCT-15 colon)	TGI (SW-620 colon)	TGI (T-47D breast)	TGI (KM12 colon)	TGI (786-0 renal)
NC(=O)c1ncn(C2OC(CO)C(O)C2O)c1NC=O (centres undefined)	> 100 µM	> 100 µM	> 100 µM	> 100 µM	> 100 µM	> 100 µM	> 100 µM	> 100 µM	> 100 µM	> 100 µM	> 100 µM	> 100 µM	> 100 µM	> 100 µM	> 100 µM	> 100 µM	> 100 µM	> 100 µM	> 100 µM	> 100 µM
COC(=O)c1ccccc1CC(Cc1ccc2c(c1)CCC2)C(=O)OC (centres undefined)	> 100 µM	> 100 µM	> 100 µM	> 100 µM	> 100 µM	> 100 µM	> 100 µM	> 100 µM	> 100 µM	> 100 µM	> 100 µM	> 100 µM	> 100 µM	> 100 µM	> 100 µM	> 100 µM	> 100 µM	> 100 µM	> 100 µM	> 100 µM
Cc1ccc(N=NC(=Nc2ccc(Cl)cc2)c2ccc(N(CCC#N)CCC#N)cc2)cc1	> 100 µM	> 100 µM	> 100 µM	> 100 µM	> 100 µM	> 100 µM	> 100 µM	> 100 µM	> 100 µM	> 100 µM	> 100 µM	90.1 µM	> 100 µM	> 100 µM	55.6 µM	> 100 µM	> 100 µM	> 100 µM	> 100 µM	> 100 µM
O=C1C=CC(=O)c2c1ccc1c3ccccc3n(-c3ccccc3)c21	7.03 µM	26.6 µM	1.31 µM	31.7 µM	4.59 µM	40.2 µM	39.3 µM	25.5 µM	30.3 µM	40.9 µM	21.2 µM	50.6 µM	29.7 µM	2.89 µM	22.8 µM	10.7 µM	7.31 µM	4.78 µM	37.7 µM	33 µM
COC(=O)C1=C(OC(=O)/C(=C/c2ccccc2)c2ccc(Cl)cc2)C(C(=O)OC)[C@@]2(O)[C@@H](C(=O)OC)[C@H](C)C[C@@H]1[C@@H]2C(=O)OC (some centres undefined)	> 100 µM	> 100 µM	> 100 µM	> 100 µM	> 100 µM	> 100 µM	> 100 µM	> 100 µM	> 100 µM	> 100 µM	> 100 µM	> 100 µM	> 100 µM	> 100 µM	> 100 µM	> 100 µM	> 100 µM	> 100 µM	> 100 µM	> 100 µM
[N-]=[N+]=Nc1c(Cl)c(Cl)nc2ccccc12	> 100 µM	> 100 µM	> 100 µM	> 100 µM	> 100 µM	> 100 µM	> 100 µM	> 100 µM	> 100 µM	> 100 µM	> 100 µM	> 100 µM	> 100 µM	> 100 µM	> 100 µM	> 100 µM	> 100 µM	> 100 µM	> 100 µM	> 100 µM
Clc1ccc(C(Cc2cccc(Cl)c2)c2c(Cl)nc(N3CCNCC3)nc2Cl)cc1 (centres undefined)	25.9 µM		17.5 µM	25 µM	52.2 µM	26.7 µM	27.1 µM	25.8 µM	30.3 µM		26.2 µM	28.4 µM	35.2 µM	24.6 µM	11.9 µM	26.4 µM	30.1 µM	31 µM	26.8 µM	27.5 µM
OC[P+](CO)(CO)C12CC3CC(CC(C3)C1)C2	> 100 µM	> 100 µM	> 82 µM	> 100 µM	59.2 µM	> 100 µM	> 100 µM	> 100 µM	> 100 µM	> 100 µM	> 100 µM	> 100 µM	> 100 µM	> 80.9 µM	> 100 µM	> 100 µM	> 100 µM	> 100 µM	> 100 µM	> 26 µM
O=c1[nH]nc(Cc2ccccc2)n1CCCl	> 100 µM	> 100 µM	> 100 µM	> 100 µM	> 100 µM	> 100 µM	> 100 µM	> 100 µM	> 100 µM	> 100 µM	> 100 µM	> 100 µM	> 100 µM	> 100 µM	> 100 µM	> 100 µM	> 100 µM	> 100 µM	> 100 µM	> 100 µM
CCOC(=O)C1(N)CCc2[nH][nH]c(=O)c2C1 (centres undefined)	> 100 µM		> 100 µM	> 100 µM	> 100 µM	> 100 µM	> 100 µM	> 100 µM	> 100 µM		> 100 µM	> 100 µM	> 100 µM	> 100 µM	> 100 µM	> 100 µM	> 100 µM	> 100 µM	> 100 µM	> 100 µM
NC(=O)c1cccc(N=c2oc3ccc(Br)cc3cc2-c2nc3ccccc3[nH]2)c1	33.3 µM	34.4 µM	> 100 µM	30.2 µM	53.4 µM	23.6 µM	32.7 µM	20.8 µM	39.4 µM	43.6 µM	32.3 µM	34.9 µM	14.4 µM	43.4 µM	35.8 µM	32.1 µM	47.7 µM	29.2 µM	49 µM	31.4 µM
O=C(O)c1cc2c(cc1CC(Cc1ccc3c(c1)CCCC3)C(=O)O)CCCC2 (centres undefined)	> 100 µM	> 100 µM	> 100 µM	> 100 µM	> 100 µM	> 100 µM	> 100 µM	> 100 µM	> 100 µM	> 100 µM	> 100 µM	> 100 µM	> 100 µM	> 100 µM	> 100 µM	> 100 µM	> 100 µM	> 100 µM	> 100 µM	> 100 µM
O=C(O)c1nc2ccc(C(F)(F)F)cc2nc1NCc1ccc(Cl)c(Cl)c1	29.7 µM	28.8 µM	36.5 µM	26.3 µM	> 100 µM	39.1 µM	38.5 µM	26.2 µM	30 µM		31.6 µM	30.5 µM	36.6 µM	34.2 µM	37.4 µM	36.5 µM	47.2 µM	35.2 µM	33.8 µM	29.3 µM
O=C(NNC1=NCCCCN1)Nc1ccc(Cl)cc1	> 100 µM		> 100 µM	> 100 µM	> 100 µM	> 100 µM	> 100 µM	> 100 µM	> 100 µM	> 100 µM		> 100 µM	> 100 µM	72.4 µM	> 100 µM	> 100 µM	> 100 µM	> 100 µM	> 100 µM	> 100 µM
CCOC(=O)CCSc1nc2ccc(I)cc2c(=O)n1Cc1ccccc1	> 74.2 µM	> 100 µM	29.5 µM	> 100 µM	33.5 µM	> 100 µM	> 100 µM	1.42 µM	> 89 µM	> 91.2 µM	> 100 µM	> 71.2 µM	> 100 µM		26.9 µM	> 77.7 µM	> 100 µM	> 100 µM	> 100 µM	> 96.8 µM
CN(C)CCNC(=O)c1cccc2c(NC(CS)C(=O)O)c3ccccc3[n+](C)c12 (centres undefined)	> 100 µM	> 100 µM	> 100 µM	> 100 µM	> 100 µM	> 100 µM	> 100 µM	> 100 µM	> 100 µM	80.8 µM	> 100 µM	> 100 µM	> 100 µM	> 100 µM	> 100 µM	> 100 µM	> 100 µM	> 100 µM	> 100 µM	> 100 µM
C[C@]12CC[C@H]3[C@@H](CC=C4C[C@@H](O)CC[C@@]43C)[C@@H]1C/C(=C/c1ccccc1)[C@@H]2O	> 45.3 µM		> 100 µM	> 76.5 µM	> 100 µM	> 68.5 µM	> 66.7 µM	> 62 µM	> 83.4 µM	89.2 µM	> 77.8 µM	> 60.3 µM	> 86.2 µM	> 100 µM	98.9 µM	> 100 µM	> 100 µM	> 59.1 µM	> 78.8 µM	> 51.9 µM
CCC1CCN=C(NS(=O)(=O)c2cc(C)c(Cl)cc2S)N1 (centres undefined)	94.6 µM	> 100 µM	> 100 µM	49.9 µM	81.5 µM	> 100 µM	> 100 µM	82.4 µM	64.2 µM	> 100 µM	> 100 µM	> 100 µM	> 100 µM	71.6 µM	> 100 µM	> 100 µM	90.3 µM	98.5 µM		97.9 µM
CN(C)CCCSc1nc2c(c(=N)n1-c1ccccc1)c(=S)n(-c1ccccc1)c(=S)n2-c1ccccc1	3.46 µM	3.18 µM	1.07 µM	24.5 µM	1.84 µM	3.05 µM	6.86 µM		3.09 µM	3.33 µM	3.76 µM	2.82 µM	6.95 µM	3.28 µM	3.94 µM	3.32 µM	3.65 µM	4.62 µM	3.5 µM	2.66 µM
